From US11472766B2, “Lipid nanoparticle composition” (Suzhou Abogen Biosciences Co., Ltd., priority 2020, dated 2022)

Key:
[1] = Lipid nanoparticle size by dynamic light scattering (Malvern Zetasizer Nano ZS); type: physicochemical; details: LNP: cationic lipid/DSPC/cholesterol/PEG-lipid 50:10:38.5:1.5, hEPO mRNA
Description: (§1) Briefly, a cationic lipid provided herein, DSPC, cholesterol, and PEG-lipid were solubilized in ethanol at a molar ratio of 50:10:38.5:1.5, and mRNA were diluted in 10 to 50 mM citrate buffer, pH=4. The LNPs were prepared at a total lipid to mRNA weight ratio of approximately 10:1 to 30:1 by mixing the ethanolic lipid solution with the aqueous mRNA solution at a volume ratio of 1:3 using a microfluidic apparatus, total flow rate ranging from 9-30 mL/min. Ethanol were thereby removed and replaced by DPBS using dialysis. Finally, the lipid nanoparticles were filtered through a 0.2 μm sterile filter.
(§2) Lipid nanoparticle size were determined by dynamic light scattering using a Malvern Zetasizer Nano ZS (Malvern UK) using a 173° backscatter detection mode. The encapsulation efficiency of lipid nanoparticles were determined using a Quant-it Ribogreen RNA quantification assay kit (Thermo Fisher Scientific, UK) according to the manufacturer's instructions.

[2] = Encapsulation efficiency of lipid nanoparticles (Quant-it Ribogreen RNA quantification assay); type: physicochemical; details: LNP encapsulating hEPO mRNA
Description: as §1, §2

[3] = tested on: human erythropoietin (hEPO) mRNA; assay: Animal study: hEPO expression after tail vein injection of LNPs encapsulating hEPO mRNA (serum ELISA); type: in vivo; details: hEPO level, female ICR mice, 0.5 mg/kg, 6 hours post administration; for Expression at 6 h (μg/ml): class symbols, Table 3; for Expression at 6 h: Table 2
Description: Lipid nanoparticles comprising compounds 1-10 encapsulating human erythropoietin (hEPO) mRNA were systemically administered to 6-8 week old female ICR mice (Xipuer-Bikai, Shanghai) at 0.5 mg/kg dose by tail vein injection and mice blood were sampled at specific time points (e.g., 6 hours) post administration. In addition to the aforementioned tested groups, lipid nanoparticles comprising dilinoleylmethyl-4-dimethylaminobutyrate (DLin-MC3-DMA, usually abbreviated to MC3) encapsulating hEPO mRNA were similarly administered at the same dose to age and gender comparative groups of mice as a positive control.
Mice were euthanized by CO2 overdoses after the last sampling time point. Serum were separated from total blood by centrifugation at 5000 g for 10 minutes at 4° C., snap-frozen and stored at −80° C. for analysis. ELSA assay were carried out using a commercial kit (DEP00, R&D systems) according to manufacturer's instructions.
Characteristics of tested lipid nanoparticles, including hEPO expression levels (μg/ml) measured from the tested group are listed the tables below and plotted in FIG. 2.

[4] = Apparent pKa of LNP formulations (TNS fluorescence assay); details: LNP cationic lipid/DSPC/cholesterol/DMG-PEG 50/10/38.5/1.5 mol %
Description: The apparent pKa of each formulation was determined using an assay based on fluorescence of 2-(p-toluidino)-6-napthalene sulfonic acid (TNS). LNP formulations comprising of cationic lipid/DSPC/cholesterol/DMG-PEG (50/10/38.5/1.5 mol %) in PBS were prepared as described above. TNS was prepared as a 300 uM stock solution in distilled water. LNP formulations were diluted to 0.1 mg/ml total lipid in 3 mL of buffered solutions containing 50 mM sodium citrate, 50 mM sodium phosphate, 50 mM sodium borate, and 30 mM sodium chloride where the pH ranged from 3 to 9. An aliquot of the TNS solution was added to give a final concentration of 0.1 mg/ml and following vortex mixing fluorescence intensity was measured at room temperature in a Molecular Devices Spectramax iD3 spectrometer using excitation and mission wavelengths of 325 nm and 435 nm. A sigmoidal best fit analysis was applied to the fluorescence data and the pKa value was measured as the pH giving rise to half-maximal fluorescent intensity.

polydispersity ([1]; Table 3) | size nm ([1]; Table 3) [nm] | Encapsulation Efficiency ([2]; Table 3) [%] | Apparant Pka ([4]; Table 3) | polydispersity ([1]; Table 2) | size nm ([1]; Table 2) [nm] | Encapsulation Efficiency ([2]; Table 2) [%] | Apparant Pka ([4]; Table 2) | SMILES | Expression at 6 h (μg/ml) [3] | Expression at 6 h [3] [µg/mL]
0.077 | 75.26 | 100.6 | 7.652 |  |  |  |  | CCCCCCCCC(CCCCCC)COC(=O)CCCCCN(CCCCCC(=O)OCC(CCCCCC)CCCCCCCC)CCN(CCO)C1CCC(O)CC1 (centres unmarked) [Compound 21] | D (<0.1) | 
0.064 | 80.78 | 95.6 | 6.711 |  |  |  |  | CCCCCCCCC(CCCCCC)CC(=O)NCCCCCN(CCCCCOC(=O)CC(CCCCCC)CCCCCCCC)CCN(CCO)C1CCC1 (centres unmarked) [Compound 108] | A (≥2) | 
0.073 | 59.73 | 94.10 | 6.093 |  |  |  |  | CCCCCCCCCC(CCCCCCCCC)COC(=O)CCCCCN(CCCCCC(=O)OCC(CCCCCCCCC)CCCCCCCCC)CCN(CCO)C1CCC1 [Compound 51] | A (≥2) | 
0.109 | 67.23 | 90.9 | 5.662 |  |  |  |  | CCCCCCCCC(CCCCCC)COC(=O)CCCCCN(CCCCCC(=O)OCC(CCCCCC)CCCCCCCC)C(=O)CN(CCO)C1CCC1 (centres unmarked) [Compound 11] | D (<0.1) | 
0.028 | 75.89 | 94.6 | 6.476 |  |  |  |  | CCCCCCCCCCCOC(=O)CCCCCN(CCCCCC(=O)OCC(CCCCCCCC)CCCCCCCC)CCN(CCO)C1CCC1 [Compound 81] | A (≥2) | 
0.1 | 59.78 | 97.1 | 6.264 |  |  |  |  | CCCCCCCCC(CCCCCC)CNC(=O)CCCCCN(CCCCCC(=O)NCC(CCCCCC)CCCCCCCC)CCN(CCO)C1CCCCC1 (centres unmarked) [Compound 120] | B (≥1 and <2) | 
0.078 | 85.17 | 97.2 | 6.477 |  |  |  |  | CCCCCCCCC(CCCCCC)COC(=O)CCCCCN(CCCCCC(=O)OCC(CCCCCC)CCCCCCCC)CCN(CCCCO)C1CCC1 (centres unmarked) [Compound 29] | A (≥2) | 
0.035 | 64.08 | 95.0 | 6.794 |  |  |  |  | CCCCCCCCC(CCCCCCCC)CC(=O)NCCCCCN(CCCCCNC(=O)CC(CCCCCCCC)CCCCCCCC)CCN(CCO)C1CCCCCC1 [Compound 144] | A (≥2) | 
0.085 | 67.68 | 94.90 | 6.143 |  |  |  |  | CCCCCCCCC(CCCCCCCC)COC(=O)CCCCCN(CCCCCC(=O)OCC(CCCCCCCC)CCCCCCCC)CCN(CCO)C1CCC1 [Compound 50] | A (≥2) | 
0.167 | 65.94 | 98.7 | 6.172 |  |  |  |  | CCCCCCCCC(CCCCCC)C(C)OC(=O)CCCCCN(CCCCCC(=O)OC(C)C(CCCCCC)CCCCCCCC)CCN(CCO)C1CCC1 (centres unmarked) [Compound 38] | C (≥0.1 and <1) | 
0.063 | 91.1 | 90.0 | 6.696 |  |  |  |  | CCCCCCCCC(CCCCCC)CNC(=O)CCCCCN(CCCCCC(=O)NCC(CCCCCC)CCCCCCCC)CCN(CCO)C1CC1 (centres unmarked) [Compound 110] | C (≥0.1 and <1) | 
 |  |  |  | 0.029 | 54.0 | 96.2 | 6.24 | CCCCCCCCC(CCCCCC)COC(=O)CCCCCN(CCCCCC(=O)OCC(CCCCCC)CCCCCCCC)CCN(CCO)C1CCCC1 (centres unmarked) [Compound 5] |  | 0.25
 |  |  |  | 0.113 | 69.2 | 96.0 | 5.83 | CCCCCCCCC(CCCCCC)COC(=O)CCCCCN(CCCCCC(=O)OCC(CCCCCC)CCCCCCCC)CCN(CCCO)C1CCCCCC1 (centres unmarked) [Compound 10] |  | 0.79
0.133 | 58.44 | 96.7 | 6.153 |  |  |  |  | CCCCCCCCC(CCCCCC)CC(=O)COCCCCN(CCCCCOC(=O)CC(CCCCCC)CCCCCCCC)CCN(CCO)C1CCCCCC1 (centres unmarked) [Compound 27] | C (≥0.1 and <1) | 
0.06 | 76.71 | 85.2 | 6.201 |  |  |  |  | CCCCCCCCCCCOC(=O)CCCCCN(CCCCCC(=O)OCC(CCCCCCCC)CCCCCCCC)CCN(CCO)C1CC1 [Compound 80] | B (≥1 and <2) | 
0.028 | 84.53 | 94.6 | 6.7 |  |  |  |  | CCCCCCCCC(CCCCCC)COC(=O)CCCCCN(CCCCCC(=O)OCC(CCCCCC)CCCCCCCC)CCN(CCO)C1CCOCC1 (centres unmarked) [Compound 89] | A (≥2) | 
0.134 | 71.02 | 94.5 |  |  |  |  |  | CCCCCCCCC(CCCCCC)CNC(=O)NCCCCN(CCCCNC(=O)NCC(CCCCCC)CCCCCCCC)CCN(CCO)C1CCC1 (centres unmarked) [Compound 121] | B (≥1 and <2) | 
0.125 | 55.51 | 96.7 |  |  |  |  |  | CCCCCCCCC(CCCCCC)CC(=O)COCCCCN(CCCCCOC(=O)CC(CCCCCC)CCCCCCCC)CCN(CCO)C1CCCCC1 (centres unmarked) [Compound 26] | C (≥0.1 and <1) | 
0.032 | 62.36 | 94.1 |  |  |  |  |  | CCCCCCCCC(CCCCCCCC)COC(=O)CCCCCN(CCCCCC(=O)OCC(CCCCCCCC)CCCCCCCC)CCN(CCCCCC)C1CCC(O)CC1 (centres unmarked) [Compound 75] | A (≥2) | 
0.298 | 67.01 | 100.3 |  |  |  |  |  | CCCCCCCCC(CCCCCC)COC(=O)CCCCCN(CCCCCC(=O)OCC(CCCCCC)CCCCCCCC)CCN(CCO)C1CCN(C)CC1 (centres unmarked) [Compound 94] | D (<0.1) | 
0.101 | 78.17 | 100.10 |  |  |  |  |  | CCCCCCCCC(CCCCCC)CNC(=O)CCCCCN(CCCCCC(=O)OCC(CCCCCC)CCCCCCCC)CCN(CCO)C1CCCC1 (centres unmarked) [Compound 126] | A (≥2) | 
0.032 | 71.47 | 96.6 |  |  |  |  |  | CCCCCCCCC(CCCCCC)C(=O)OCCCCCCN(CCCCCCOC(=O)C(CCCCCC)CCCCCCCC)CCN(CCO)C1CCC1 (centres unmarked) [Compound 45] | A (≥2) | 
0.027 | 78.99 | 93.1 |  |  |  |  |  | CCCCCCCCC(CCCCCCCC)COC(=O)CCCCCN(CCCCCC(=O)OCC(CCCCCCCC)CCCCCCCC)CCN(C)C1CCC(O)CC1 (centres unmarked) [Compound 73] | C (≥0.1 and <1) | 
0.06 | 67.17 | 93.2 |  |  |  |  |  | CCCCCCCCC(CCCCCC)CNC(=O)CCCCCN(CCCCCC(=O)NCC(CCCCCC)CCCCCCCC)CCN(CCO)C1CC1 (centres unmarked) [Compound 119] | D (<0.1) | 
0.107 | 79.73 | 86.10 |  |  |  |  |  | CCCCCCCCC(CCCCCC)CNC(=O)CCCCCN(CCCCCC(=O)OCC(CCCCCC)CCCCCCCC)CCN(CCO)C1CCCCCC1 (centres unmarked) [Compound 128] | A (≥2) | 
0.063 | 61.17 | 94.29 |  |  |  |  |  | CCCCCCCCC(CCCCCCCC)CNC(=O)CCCCCN(CCCCCC(=O)OCC(CCCCCCCC)CCCCCCCC)CCN(CCO)C1CCCC1 [Compound 136] | A (≥2) | 

SMILES | polydispersity ([1]; Table 3) | size nm ([1]; Table 3) [nm] | Encapsulation Efficiency ([2]; Table 3) [%] | Apparant Pka ([4]; Table 3) | polydispersity ([1]; Table 2) | size nm ([1]; Table 2) [nm] | Encapsulation Efficiency ([2]; Table 2) [%] | Apparant Pka ([4]; Table 2) | Expression at 6 h (μg/ml) [3] | Expression at 6 h [3] [µg/mL]
CCCCCCCCC(CCCCCC)COC(=O)CCCCCN(CCCCCC(=O)OCC(CCCCCC)CCCCCCCC)CCN(C)CCO (centres unmarked) [Compound B] |  |  |  |  | 0.060 | 79.0 | 100.0 | 7.33 |  | 0.44
